The source of these data is patent publication US10213494B2, “Treatment of synucleinopathies” (The Brigham and Women's Hospital, Inc., priority 2007, dated 2019).

Data set [1] relates to MES-syn cells. The experiment in a line: LDH release assay of cellular integrity. The following applies: enzyme cDNA 5 μg/10 cm dish, versus control vector transfected cells. It counts as cell-based, rodent. Here is the method:
To confirm that the effect of Cathepsin D on lowering of αS in MES23.5 cells was specific and was not caused by a general decrease in cellular metabolism and integrity, the MTT and LDH assays were performed on MES-syn cells that had been co-transfected with the highest amount of Cathepsin D-encoding cDNA (5 μg/10 cm dish). Lysis of cells with 0.1% Triton-X® 100 served as a positive control, representing maximal cell death.
To confirm that the effect of Cathepsin F on lowering of αS was specific and was not caused by a general decrease in cellular integrity, the LDH assay was performed on MES-syn cells that had been co-transfected with Cathepsin F-encoding CTSF cDNA (5 μg/10 cm dish). Lysis of cells with 0.1% Triton-X 100 served as a positive control for cell toxicity, promoting maximal cell death.
(In general: LDH leaks from cells whose membrane has failed.)

The subject of data set [2] is A30P, E46K, A53T, S129D, S129A and DQ/AA variants of α-synuclein in MES23.5 cells. The experiment in a line: Sandwich ELISA of mutant α-synuclein variants in MES23.5 cells co-transfected with CTSD cDNA. In kind it is cell-based, human. The following applies: cathepsin D cDNA 5 μg/10 cm dish. Here is the method:
Sera from six rabbits were raised and affinity-purified at Open Biosystems, Inc. (openbiosystems.com) against recombinant, full-length human αS. Recombinant αS had been HPLC- and MS-characterized and subjected to amino acid composition and protein concentration analyses. For ELISA, 384-well MaxiSorp plates (Nunc, Inc) were coated with 50 μl/well capturing polyclonal Ab (hSA-2) diluted in coating buffer (NaHCO3 with 0.2% NaN3, pH 9.6). Following washes with PBS/0.05% Tween-20 (PBS-T), plates were blocked for 2 hours at 37° C. in blocking buffer (1.125% fish skin gelatin; PBS-T). After 4 washes, samples were loaded and incubated at 4° C. for 12 hours. Biotinylated Syn-1 mAb (as the assaying Ab) was generated using 200 μg Sulfo-NHS-LC Biotin (Pierce), diluted in blocking buffer and added to the plate for 2 hours at 37° C. Following 4 washes, ExtrAvidin phosphatase (Sigma) diluted in blocking buffer was applied for 1 hr at 37° C. Color development was carried out by using Fast-p-Nitrophenyl Phosphate (Sigma) and monitored kinetically at OD 405 nm every 5 minutes for up to 60 minutes.
To examine whether Cathepsin D could also reduce the levels of missense mutation-carrying αS proteins, MES23.5 cells were transfected with low amounts (0.5 μg/10 cm dish) of SNCA cDNA encoding either the A30P, E46K or A53T variants of α-synuclein which are linked to familial Parkinson Disease in humans, as well as a S129D and a S129A mutant. Phosphorylation of αS at the Serine 129 residue is known to be a pathological hallmark of αS aggregates in vivo (Anderson J et al., 2006, J Biol Chem, 281:29739-29752). Mutation of a Ser residue to Asp is known in the art to mimic sustained, serine-based phosphorylation. The S129A mutant, a phosphorylation-incompetent mutant of αS, was also included for comparison.
As shown in the bar graph of FIG. 7, the co-expression of Cathepsin D-encoding CTSD cDNA (5 μg/10 cm dish) with either A30P, E46K, A53T, S129D, or S129A αS caused a similar degree reduction in αS levels for all αS proteins examined, when compared to their co-expression with empty vector DNA. When comparing the changes in α-synuclein steady-state to well-characterized levels of recombinant α-synuclein protein that was loaded in parallel, it was estimated that cathepsin D over-expression (at a cDNA concentration of 5 μg/10 cm dish) led to intracellular α-synuclein levels that were 23.98+/−3.57%, 33.08+/−18.51%, 39.21+/−14.63%, 34.84+/−11.36% and 34.31+/−13.39% of cognate control levels, for A30P, E46K, A53T, S129D, or S129A αS polypeptides, respectively (n=2 (−3) from 2-3 independent experiments).
Of note, residues D98 and Q99 of αS represent the motif by which αS is recognized by the Lamp2a receptor during chaperone mediated autophagy (CMA); Cuervo et al, 2004, Science, vol 305, pp 1292-1295). To investigate the importance of this motif in the αS-lowering action induced by cathepsin D, MES 23.5 cells were also transfected with a cDNA (0.5 μg/10 cm dish) encoding a mutant αS variant, where the D98 and Q99 residues had both been changed to Alanine (A) by site-directed mutagenesis (i.e., DQ/AA-variant of αS). When comparing the changes in the DQ/AA-αS steady-state to well-characterized levels of recombinant α-synuclein protein that were loaded in parallel, it was estimated that cathepsin D over-expression (5 μg/10 cm dish) led to intracellular DQ/AA αS levels that were 22.14+/−5.32% of the vector control levels, (n=3, from 3 independent experiments; not shown).
A general note: ELISA stands for enzyme-linked immunosorbent assay.

Turning to “cathepsin D: human lysosomal aspartyl protease expressed from CTSD cDNA plasmid under a CMV promoter”, in data set [1], the LDH signal entry is “identical to that of control vector transfected cells”. Also, the “intracellular α-synuclein level, % of cognate control levels” value is 23.98+/−3.57% in data set [2] (A30P αS); 39.21+/−14.63% in data set [2] (A53T αS); 33.08+/−18.51% in data set [2] (E46K αS); 34.31+/−13.39% in data set [2] (S129A αS); 34.84+/−11.36% in data set [2] (S129D αS). In addition, the “intracellular DQ/AA αS level, % of vector control levels” value in data set [2] (DQ/AA αS (D98A/Q99A), n=3) is 22.14+/−5.32%.
